# Reference: patent US20120207704A1 (priority 2011, published 2012)
# Tested on: DU-145 cells
# Type: cell-based, human
compound,measurement,value
C=C1[C@@H](C)[C@H]2[C@H](Cc3ccccc3)NC(=O)[C@]23[C@H](OC(C)=O)/C=C/[C@@](C)(O)C(=O)[C@@H](C)C/C=C/[C@H]3[C@@H]1O [Cytochalasin-D],Effect on cell migration,did not migrate
same,"Relative Wound Density at 24 Hours, Mean",3.3 ± 0.2
same,"Relative Wound Density at 24 Hours, Percent Relative to Media",4%
